Changes are numbered by the printed parent chain.
Assays:
[1] = molecular target: T1, Escherichia coli biotin synthase (BioB), His6-BioB (Escherichia coli, UniProt P12996); assay: […] kDa centrifugal filtration of assay mixture, HPLC; assay type: binding; settings: 50 μM enzyme, intermediate formed in situ, after 2 h assay, anaerobic
T1 sequence (P12996 1-346): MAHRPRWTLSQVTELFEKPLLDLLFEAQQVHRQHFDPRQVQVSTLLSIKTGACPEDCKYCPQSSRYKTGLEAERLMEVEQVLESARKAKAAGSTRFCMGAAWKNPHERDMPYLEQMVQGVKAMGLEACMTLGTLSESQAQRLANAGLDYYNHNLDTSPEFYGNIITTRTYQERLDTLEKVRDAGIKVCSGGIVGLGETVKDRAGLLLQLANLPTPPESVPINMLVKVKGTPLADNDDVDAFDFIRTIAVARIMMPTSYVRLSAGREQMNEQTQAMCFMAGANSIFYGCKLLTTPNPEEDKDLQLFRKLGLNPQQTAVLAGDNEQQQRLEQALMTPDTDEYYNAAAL

[2] = molecular target: T2, Escherichia coli biotin synthase (BioB), His6-BioB (Escherichia coli, UniProt P12996, N153Q); assay: […] kDa centrifugal filtration binding assay, HPLC
T2 sequence (P12996 1-346 N153Q): T1 sequence (P12996 1-346) with N153Q

[3] = molecular target: T3, Escherichia coli biotin synthase (BioB), His6-BioB (Escherichia coli, UniProt P12996, N153S); assay: […] kDa centrifugal filtration binding assay, HPLC
T3 sequence (P12996 1-346 N153S): T1 sequence (P12996 1-346) with N153S

[4] = molecular target: T1, Escherichia coli biotin synthase (BioB), His6-BioB; assay: […] kDa centrifugal filtration binding assay, HPLC

Structure (SMILES) | % bound to protein [1] | Kd [2] [µM] | Kd [3] [µM] | Kd [4] [µM]
O=C(O)CCCCC[C@H]1NC(=O)N[C@H]1CS [9-MDTB] | ~ 50% |  |  | 
C[S+](CC[C@H](N)C(=O)O)C[C@H]1O[C@@H](n2cnc3c(N)ncnc32)[C@H](O)[C@@H]1O (stereo partly shown) [AdoMet] |  | 530 ± 180 | 3 ± 1 | 1 ± 0.5
C[C@@H]1NC(=O)N[C@@H]1CCCCCC(=O)O [DTB] |  | 110 ± 30 | 11 ± 3 | 0.5 ± 1
